Experiments:
[1] = target: recombinant 17bHSD13 (N2-K300) (Homo sapiens (Human), UniProt Q7Z5P4); assay: In Vitro 17bHSD13 Enzyme Assay; assay type: biochemical; conditions: 80 nM 17bHSD13, 0.5 mM NAD, 20 μM Estradiol, 2.5 h; estradiol to estrone by LC-MS/MS
Summary of the method: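 Human 17bHSD13 (N2-K300, 80 nM) with 0.5 mM NAD, 20 μM estradiol and varied compound in 50 mM Tris-Cl pH 7.4, 5 mM EDTA, 0.01% DDM. Estrone/(estrone+estradiol) ratio read by LC-MS/MS (APCI, positive MRM). Inhibition normalised to DMSO and a known-inhibitor control; IC50 from curve fit.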

[2] = target: human CB1 receptor expressed in transfected CHO cells (Homo sapiens (Human), UniProt P21554); assay: Assay C: CB1 Agonism Assay; assay type: cell-based; conditions: agonist activity, cAMP HTRF, read-out: Assay C: CB1 Hu CHO cAMP TRF Ag CR GMean EC50
Experimental: Assay C: CB1 Agonism Assay
Evaluation of the agonist activity of compounds at the human CB1 receptor expressed in transfected CHO cells, determined by measuring their effects on cAMP modulation using the HTRF detection method.
Thereafter, the adenylyl cyclase activator NKH 477 is added at a final concentration of 3 μM. Following 20 min incubation at 37° C., the cells are lysed and the fluorescence acceptor (D2-labeled cAMP) and fluorescence donor (anti-cAMP antibody labeled with europium cryptate) are added. After 60 min at room temperature, the fluorescence transfer is measured at gex=337 nm and gem=620 and 665 nm using a microplate reader (RUBYSTAR, BMG). The cAMP concentration is determined by dividing the signal measured at 665 nm by that measured at 620 nm (ratio). The results are expressed as a percent of the control response to 30 nM CP 55940. The standard reference agonist is CP 55940, which is tested in each experiment at several concentrations to generate a concentration-response curve from which its EC50 value is calculated.
Bibliographic reference Felder, C. C. et al., (1995), Comparison of the pharmacology and signal transduction of the human cannabinoid CB1 and CB2 receptors, Mol. Pharmacol., 48: 443, which is incorporated herein by reference.

[3] = target: CYP2C9 (Homo sapiens (Human), UniProt P11712); assay: Assay B: Cytochrome P450 Inhibition 2C9
[4] = Metabolism Study: in vitro study to identify metabolites; assay type: in vitro ADME
Description: Metabolites 1 and 2 were subsequently synthesised and characterised.

CYP2C9, sequence (P11712 whole entry): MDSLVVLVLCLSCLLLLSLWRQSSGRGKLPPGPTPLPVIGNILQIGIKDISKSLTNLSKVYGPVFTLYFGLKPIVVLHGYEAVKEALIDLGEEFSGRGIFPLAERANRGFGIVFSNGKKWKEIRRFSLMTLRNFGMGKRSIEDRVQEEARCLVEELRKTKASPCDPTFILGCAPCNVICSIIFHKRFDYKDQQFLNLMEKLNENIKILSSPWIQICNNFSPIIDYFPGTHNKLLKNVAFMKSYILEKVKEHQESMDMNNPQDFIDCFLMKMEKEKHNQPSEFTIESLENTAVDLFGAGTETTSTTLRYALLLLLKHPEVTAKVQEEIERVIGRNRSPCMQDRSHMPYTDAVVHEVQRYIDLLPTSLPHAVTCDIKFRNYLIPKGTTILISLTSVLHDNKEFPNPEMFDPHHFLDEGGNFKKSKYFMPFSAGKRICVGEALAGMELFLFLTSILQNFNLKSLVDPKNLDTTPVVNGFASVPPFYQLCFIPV
human CB1 receptor expressed in transfected CHO cells, sequence (P21554 whole entry): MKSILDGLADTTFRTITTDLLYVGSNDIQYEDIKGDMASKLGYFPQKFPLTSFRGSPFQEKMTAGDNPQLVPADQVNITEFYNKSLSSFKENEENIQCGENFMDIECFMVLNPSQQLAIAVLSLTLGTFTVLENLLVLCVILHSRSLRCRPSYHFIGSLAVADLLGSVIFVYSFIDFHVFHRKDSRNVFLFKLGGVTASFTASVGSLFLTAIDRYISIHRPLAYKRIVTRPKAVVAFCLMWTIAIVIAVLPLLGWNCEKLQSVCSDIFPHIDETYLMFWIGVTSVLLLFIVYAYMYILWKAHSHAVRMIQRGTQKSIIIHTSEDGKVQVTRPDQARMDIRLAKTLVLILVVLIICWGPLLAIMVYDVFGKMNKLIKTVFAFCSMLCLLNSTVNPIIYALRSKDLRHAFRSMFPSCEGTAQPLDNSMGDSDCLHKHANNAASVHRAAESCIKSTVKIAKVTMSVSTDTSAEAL
recombinant 17bHSD13 (N2-K300), sequence (Q7Z5P4 2-300): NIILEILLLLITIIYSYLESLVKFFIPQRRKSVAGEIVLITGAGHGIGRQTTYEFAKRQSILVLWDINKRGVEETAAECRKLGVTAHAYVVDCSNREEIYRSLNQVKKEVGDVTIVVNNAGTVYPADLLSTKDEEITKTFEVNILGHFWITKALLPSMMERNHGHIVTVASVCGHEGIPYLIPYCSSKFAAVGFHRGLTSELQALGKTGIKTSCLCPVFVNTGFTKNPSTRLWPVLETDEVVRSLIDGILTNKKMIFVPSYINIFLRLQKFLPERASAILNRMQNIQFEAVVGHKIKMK

Row | IC50 [1] | EC50 [2] | IC50 [3] | metabolites identified [4] | SMILES
1 | 0.154 µM | > 100 µM | 9.8 µM |  | O=C(c1noc(-c2cc(F)c(F)c(O)c2F)n1)N1CCO[C@H]2CCC[C@@H]21 [Example 115, ((4aS,7aS)-Hexahydrocyclopenta[b][1,4]oxazin-4(4aH)-yl)(5-(2,4,5-trifluoro-3-hydroxyphenyl)-1,2,4-oxadiazol-3-yl)methanone]
2 | 0.057 µM | 2.5 µM | 7.8 µM |  | C[C@@H]1C[C@H](C)CN(C(=O)c2noc(-c3cc(F)c(F)c(O)c3F)n2)C1 [Example 37, ((3R,5S)-3,5-Dimethylpiperidin-1-yl)(5-(2,4,5-trifluoro-3-hydroxyphenyl)-1,2,4-oxadiazol-3-yl)methanone]
3 | 0.036 µM | 1.9 µM | 0.6 µM |  | COc1ccccc1C1CCN(C(=O)c2noc(-c3cc(F)c(F)c(O)c3F)n2)C1 (stereo not drawn) [Example 4, (3-(2-Methoxyphenyl)pyrrolidin-1-yl)(5-(2,4,5-trifluoro-3-hydroxyphenyl)-1,2,4-oxadiazol-3-yl)methanone]
4 | 0.187 µM | 3.2 µM | 3.1 µM |  | N#Cc1cccc2c1CCN(C(=O)c1noc(-c3cc(F)c(F)c(O)c3F)n1)C2 [Example 66, 2-(5-(2,4,5-Trifluoro-3-hydroxyphenyl)-1,2,4-oxadiazole-3-carbonyl)-1,2,3,4-tetrahydroisoquinoline-5-carbonitrile]
5 | 0.046 µM | 60.5 µM | 7.2 µM |  | O=C(c1noc(-c2cc(F)c(F)c(O)c2F)n1)N1CCO[C@@H]2CCC[C@H]21 [Example 114, ((4aR,7aR)-Hexahydrocyclopenta[b][1,4]oxazin-4(4aH)-yl)(5-(2,4,5-trifluoro-3-hydroxyphenyl)-1,2,4-oxadiazol-3-yl)methanone]
6 | 0.285 µM | 46 µM | 15.4 µM | yielded Metabolite 1 and Metabolite 2 | C[C@@H]1CN(C(=O)c2noc(-c3cc(F)c(F)c(O)c3F)n2)C[C@H](C)O1 [Example 87, ((2R,6S)-2,6-Dimethylmorpholino)(5-(2,4,5-trifluoro-3-hydroxyphenyl)-1,2,4-oxadiazol-3-yl)methanone]
7 | 0.165 µM |  | 5 µM |  | N#Cc1ccc2c(c1)CCN(C(=O)c1noc(-c3cc(F)c(F)c(O)c3F)n1)C2 [Example 31, 2-(5-(2,4,5-Trifluoro-3-hydroxyphenyl)-1,2,4-oxadiazole-3-carbonyl)-1,2,3,4-tetrahydroisoquinoline-6-carbonitrile]
8 | 0.102 µM | 5.7 µM | 4 µM |  | N#Cc1ccc2c(c1)CN(C(=O)c1noc(-c3cc(F)c(F)c(O)c3F)n1)CC2 [Example 86, 2-(5-(2,4,5-Trifluoro-3-hydroxyphenyl)-1,2,4-oxadiazole-3-carbonyl)-1,2,3,4-tetrahydroisoquinoline-7-carbonitrile]
9 | 0.211 µM | 0.4 µM | 4.2 µM |  | O=C(c1noc(-c2cc(F)c(F)c(O)c2F)n1)N1CCO[C@@H]2CCC[C@@H]21 [Example 113, ((4aS,7aR)-Hexahydrocyclopenta[b][1,4]oxazin-4(4aH)-yl)(5-(2,4,5-trifluoro-3-hydroxyphenyl)-1,2,4-oxadiazol-3-yl)methanone]

More lines, now with the values behind:

Row | SMILES | IC50 [1] | EC50 [2] | IC50 [3] | metabolites identified [4]
10 | CC1CN(C(=O)c2noc(-c3cc(F)c(F)c(O)c3F)n2)CC(C)(C)O1 (stereo not drawn) [Example 117, (5-(2,4,5-Trifluoro-3-hydroxyphenyl)-1,2,4-oxadiazol-3-yl)(2,2,6-trimethylmorpholino)methanone] | 0.234 µM | 0.5 µM | 4.9 µM | 
11 | CC(C)[C@H]1CN(C(=O)c2noc(-c3cc(F)c(F)c(O)c3F)n2)C[C@@H](C)O1 (racemic) [Example 122, rac-((2R,6S)-2-isopropyl-6-methylmorpholino)(5-(2,4,5-trifluoro-3-hydroxyphenyl)-1,2,4-oxadiazol-3-yl)methanone] | 0.085 µM | 22.3 µM | 4.4 µM | 
12 | C[C@@H]1CN(C(=O)c2ccc(-c3cc(F)c(F)c(O)c3F)s2)C[C@H](C)O1 [Example 3, ((2R,6S)-2,6-Dimethylmorpholino)(5-(2,4,5-trifluoro-3-hydroxyphenyl)thiophen-2-yl)methanone] | 0.036 µM | > 100 µM | 1.6 µM | 
13 | C[C@@H]1CN(C(=O)c2cnc(-c3cc(F)c(F)c(O)c3F)s2)C[C@H](C)O1 [Example 120, ((2R,6S)-2,6-Dimethylmorpholino)(2-(2,4,5-trifluoro-3-hydroxyphenyl)thiazol-5-yl)methanone] | 0.044 µM | 8.5 µM | 12.8 µM | 
14 | C[C@@H]1C[C@H](C)CN(C(=O)c2nc(-c3cc(F)c(F)c(O)c3F)no2)C1 [Example 111, ((3R,5S)-3,5-Dimethylpiperidin-1-yl)(3-(2,4,5-trifluoro-3-hydroxyphenyl)-1,2,4-oxadiazol-5-yl)methanone] | 0.093 µM | 3.4 µM | 4.9 µM | 
15 | C[C@@H]1CN(C(=O)c2cc(-c3cc(F)c(F)c(O)c3F)on2)C[C@H](C)O1 [Example 89, ((2R,6S)-2,6-Dimethylmorpholino)(5-(2,4,5-trifluoro-3-hydroxyphenyl)isoxazol-3-yl)methanone] | 0.168 µM | 78.2 µM | 3.7 µM | 
16 | CC1CN(C(=O)c2noc(-c3cc(F)c(F)c(O)c3F)n2)CC2(CCC2)O1 (racemic) [Example 123, (6-Methyl-5-oxa-8-azaspiro[3.5]nonan-8-yl)(5-(2,4,5-trifluoro-3-hydroxyphenyl)-1,2,4-oxadiazol-3-yl)methanone] | 0.077 µM | > 3 µM | 9.3 µM | 
17 | O=C(c1noc(-c2ccc(F)c(O)c2)n1)N1CC[C@H](c2ccccc2)C1 [Example 11, (R)-(5-(4-Fluoro-3-hydroxyphenyl)-1,2,4-oxadiazol-3-yl)(3-phenylpyrrolidin-1-yl)methanone] | 0.069 µM | 3.1 µM | 12.8 µM | 
18 | CC[C@H]1CN(C(=O)c2noc(-c3cc(F)c(F)c(O)c3F)n2)C[C@@H](C)O1 (racemic) [Example 121, rac-((2R,6S)-2-Ethyl-6-methylmorpholino)(5-(2,4,5-trifluoro-3-hydroxyphenyl)-1,2,4-oxadiazol-3-yl)methanone] | 0.13 µM | > 10 µM | 7.7 µM | 

From US20250011311A1, “AMIDO HETEROAROMATIC COMPOUNDS” (AstraZeneca AB, priority 2022, published 2025)
